This note sets out measurements from US20230330151A1, “COMPOSITION FOR PROMOTING DIFFERENTIATION OF NEURAL STEM CELLS INTO DOPAMINERGIC NEURONS” (CHA UNIVERSITY INDUSTRY-ACADEMIC COOPERATION FOUNDATION, priority 2020, published 2023).

The subject of assay [1] is FMD-NSPCs (fetal midbrain derived neural stem/progenitor cells). The assay is described as follows: Differentiation of neural stem cells into dopaminergic neurons, immunochemical staining for TH and Tuj1. In kind it is cell-based, human. Conditions: FIG. 3; FA: 0.1 mM; over time of differentiation.
In a further assay the test system is FMD-NPCs. The assay is described as follows: Differentiation rate by subculture number, TH expression measured by fluorescence intensity. In kind it is cell-based, human. As to conditions: FIG. 11; as the cells were subcultured. An excerpt: For each group, neural stem cells (A) subcultured less than 10 times, (B) subcultured 10 or more times and 20 or less times, (C) subcultured 20 or more times were used to compare average values, to compare and analyze differentiation rates according to a subcultured number.

SMILES strings stand for the structures.

As to `CCCCc1ccc(C(=O)O)nc1` [FA alone, 5-butylpicolinic acid], in assay [1], the Tuj1 expression result was “increased over time” and the “expression of TH” value was “decreased over time”. Moreover, in the assay with FMD-NPCs, the “rate of differentiation into TH” value is recorded as “gradually decreased”.
